17 compounds from patent US20250215029A1 (Recludix Pharma, Inc., priority 2022, published 2025) can be followed below.

Assay [1] addresses T1, Recombinant STAT6 protein (STAT6 (W123-T658)) (Homo sapiens, UniProt P42226).
T1 construct: Recombinant STAT6 protein (STAT6 (W123-T658))
T1 sequence (P42226 123-658): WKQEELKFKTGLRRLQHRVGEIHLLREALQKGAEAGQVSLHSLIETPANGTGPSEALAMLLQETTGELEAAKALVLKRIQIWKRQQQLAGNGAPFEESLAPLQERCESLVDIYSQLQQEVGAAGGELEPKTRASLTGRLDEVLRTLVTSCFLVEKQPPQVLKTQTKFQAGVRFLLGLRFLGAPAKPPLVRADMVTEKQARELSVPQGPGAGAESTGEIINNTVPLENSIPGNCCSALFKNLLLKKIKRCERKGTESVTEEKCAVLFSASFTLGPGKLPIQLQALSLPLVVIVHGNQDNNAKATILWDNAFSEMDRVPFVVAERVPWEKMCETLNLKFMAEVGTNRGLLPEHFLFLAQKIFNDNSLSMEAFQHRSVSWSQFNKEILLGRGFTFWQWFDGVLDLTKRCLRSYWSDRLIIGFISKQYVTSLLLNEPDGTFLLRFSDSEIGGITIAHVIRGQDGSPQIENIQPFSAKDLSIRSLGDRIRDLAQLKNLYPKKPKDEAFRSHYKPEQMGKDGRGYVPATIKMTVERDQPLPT
As to the kind of experiment: STAT6 Fluorescence Polarization (FP) Assay. Format: binding. Conditions: probe 5-FAM-Ap[…]-NH2 2 nM, 45-minute incubation. The method, boiled down:
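Recombinant STAT6 (W123-T658) at 250 nM mixed with 2 nM 5-FAM phosphotyrosine peptide probe in HEPES pH 7.4 buffer with DTT, 1% DMSO final, added to serially diluted compounds. FP (mP) read after 45 min at room temperature; IC50 by nonlinear regression vs log concentration.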
In general terms: Polarisation of emitted light reports the rotation of a fluorescent probe.

Assay [2] has as its target T2, Recombinant STAT3 protein (STAT3 (G127-I722)) (Homo sapiens, UniProt P40763).
T2 construct: Recombinant STAT3 protein (STAT3 (G127-I722))
As to the kind of experiment: STAT3 Fluorescence Polarization (FP) Assay. Format: binding. Conditions: probe 5-FAM-GpYLPQTV-NH2 2 nM, 45-minute incubation. The essentials:
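Read-out is fluorescence polarization (mP) after 45 min at room temperature, with IC50 fitted by nonlinear regression against log compound concentration. Mixture: 25 nM STAT3 (G127-I722), 2 nM 5-FAM-GpYLPQTV-NH2 phosphopeptide, 10 mM HEPES pH 7.4 buffer, 1% DMSO.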

[3] abbreviates: STAT6 (W123-T658) 250 nM, read-out: STAT6 (FP assay IC50 class).
Where [4] appears, read: STAT3 (G127-I722) 25 nM, read-out: STAT3 (FP assay IC50 class).
[5] abbreviates: STAT6 250 nM, read-out: STAT6 (FP assay IC50).
[6] abbreviates: STAT3 25 nM, read-out: STAT3 (FP assay IC50).

Each structure is given as a SMILES string. pIC50: −log10 of the molar value. Where two headings read alike, the source gives them in different places.

T2 sequence (P40763 127-722): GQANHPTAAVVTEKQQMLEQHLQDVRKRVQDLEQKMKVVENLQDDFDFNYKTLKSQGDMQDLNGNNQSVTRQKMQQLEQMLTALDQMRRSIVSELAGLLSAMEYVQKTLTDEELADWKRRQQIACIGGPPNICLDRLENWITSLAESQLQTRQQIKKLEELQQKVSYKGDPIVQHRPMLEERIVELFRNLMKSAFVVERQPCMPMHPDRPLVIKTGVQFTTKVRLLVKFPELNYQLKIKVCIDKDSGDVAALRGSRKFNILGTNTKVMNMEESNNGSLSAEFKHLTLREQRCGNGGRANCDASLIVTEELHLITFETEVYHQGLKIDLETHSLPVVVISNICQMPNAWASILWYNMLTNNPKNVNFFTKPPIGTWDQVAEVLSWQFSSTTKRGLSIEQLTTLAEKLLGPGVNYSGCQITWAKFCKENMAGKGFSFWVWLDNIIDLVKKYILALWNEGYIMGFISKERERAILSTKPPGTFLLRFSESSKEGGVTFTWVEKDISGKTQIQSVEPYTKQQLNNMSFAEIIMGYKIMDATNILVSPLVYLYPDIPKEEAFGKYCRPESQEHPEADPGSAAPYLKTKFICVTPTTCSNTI

Consider `O=C(N[C@H]1CCC[C@H]2CC[C@@H](C(=O)N3CC(C4=CCOCC4)C3)N2C1=O)c1cc2cc(CP(=O)(O)O)ccc2s1` [Compound 697, ((2-(((3S,6S,9aS)-3-(3-(3,6-dihydro-2H-pyran-4-yl)azetidine-1-carbonyl)-5-oxooctahydro-1H-pyrrolo[1,2-a]azepin-6-yl)carbamoyl)benzo [b]thiophen-5-yl)methyl) phosphonic acid], for which the pIC50 (commonly the negative decadic logarithm of the IC50, by convention in mol/L) in assay [1] (setting [3]) is 4.52 to 5.52; in assay [2] (setting [4]) it was 5.00 to 6.00.

With `CS(=N)(=O)CC1CN(C(=O)[C@@H]2CC[C@@H]3CCCC[C@H](NC(=O)c4cc5cc(C(F)(F)P(=O)(O)O)ccc5s4)C(=O)N32)C1` (stereo partly drawn) [Compound 66, (difluoro(2-(((3S,6S,10aS)-3-(3-((S-methyl-sulfonimidoyl)methyl)azetidine-1-carbonyl)-5-oxodecahydropyrrolo [1,2-a]azocin-6-yl)carbamoyl)benzo[b]thiophen-5-yl)methyl) phosphonic acid], the pIC50 in assay [1] (setting [5]) was 4.52 to 5.52; in assay [2] (setting [6]), more than 7.00.

Turning to `O=C(N[C@H]1CCC[C@H]2CC[C@@H](C(=O)N3CC4(C3)OCc3ccncc34)N2C1=O)c1cc2cc(C(F)P(=O)(O)O)ccc2s1` (stereo partly drawn) [Compound 630, (fluoro(2-(((3S,6S,9aS)-5-oxo-3-(1′H-spiro[azetidine-3,3′-furo [3,4-c]pyridine]-1-carbonyl)octahydro-1H-pyrrolo[1,2-a]azepin-6-yl)carbamoyl)benzo [b]thiophen-5-yl)methyl) phosphonic acid], the negative-log IC50 (pIC50) in assay [1] (setting [3]) is 4.52 to 5.52; in assay [2] (setting [4]), 6.00 to 7.00.

As for `COc1cc(C2CN(C(=O)[C@@H]3CC[C@@H]4CCC[C@H](NC(=O)c5cc6cc([C@@H](F)P(=O)(O)O)ccc6s5)C(=O)N43)C2)ccn1` (single isomer, unassigned) [Compound 702], the pIC50 is 4.52 to 5.52 in assay [1] (setting [3]) and 6.00 to 7.00 in assay [2] (setting [4]).

`COc1cccc([C@H]2CN(C(=O)[C@@H]3CC[C@@H]4CCCC[C@H](NC(=O)c5cc6cc(C(F)(F)P(=O)(O)O)ccc6s5)C(=O)N43)C[C@@H]2C#N)n1` (racemic) [Compound 105, ((2-(((3S,6S,10aS)-3-(rel-(trans) 3-cyano-4-(6-methoxypyridin-2-yl)pyrrolidine-1-carbonyl)-5-oxodecahydropyrrolo [1,2-a]azocin-6-yl)carbamoyl)benzo[b]thiophen-5-yl)difluoromethyl) phosphonic acid]: the pIC50 in assay [1] (setting [5]) is not below 6.52; in assay [2] (setting [6]) it was 6.00 to 7.00.

On to `CC1CCC[C@H](NC(=O)c2cc3cc(C(F)(F)P(=O)(O)O)ccc3s2)C(=O)N2[C@@H]1CC[C@H]2C(=O)N1CC(c2cccnc2)C1` (stereo partly drawn) [Compound 103, (difluoro(2-(((3S,6S,10aR)-10-methyl-5-oxo-3-(3-(pyridin-3-yl)azetidine-1-carbonyl)decahydropyrrolo [1,2-a]azocin-6-yl)carbamoyl)benzo[b]thiophen-5-yl)methyl) phosphonic acid], for which the negative-log IC50 (pIC50) in assay [1] (setting [5]) was 4.52 to 5.52; in assay [2] (setting [6]), more than 7.00.

In the case of `O=C(N[C@H]1CCC2(CC2)C[C@H]2CC[C@@H](C(=O)N3CC(C(=O)N4CCOCC4)C3)N2C1=O)c1cc2cc(C(F)(F)P(=O)(O)O)ccc2s1` [Compound 114, (difluoro(2-(((3′S,6′S, 10aR)-3′-(3-(morpholine-4-carbonyl)azetidine-1-carbonyl)-5′-oxooctahydro-1′H-spiro [cyclopropane-1,9′-pyrrolo[1,2-a]azocin]-6′-yl)carbamoyl)benzo[b]thiophen-5-yl)methyl) phosphonic acid], the pIC50 in assay [1] (setting [5]) is 4.52 to 5.52; in assay [2] (setting [6]), more than 7.00.

On to `O=C(N[C@H]1CCCC[C@H]2CC[C@@H](C(=O)Nc3ccc4nccc(Cl)c4c3)N2C1=O)c1cc2cc(C(F)(F)P(=O)(O)O)ccc2s1` [Compound 55, ((2-(((3S,6S,10aS)-3-((4-chloroquinolin-6-yl)carbamoyl)-5-oxodecahydropyrrolo [1,2-a]azocin-6-yl)carbamoyl)benzo[b]thiophen-5-yl)difluoromethyl) phosphonic acid], for which the results for the pIC50 in assay [1] (setting [5]) and in assay [2] (setting [6]) were 5.52 to 6.52 and 6.00 to 7.00, respectively.

Turning to `O=C(N[C@H]1CCC[C@H]2CC[C@@H](C(=O)N3CC(c4nccnc4F)C3)N2C1=O)c1cc2cc(CP(=O)(O)O)ccc2s1` [Compound 538, ((2-(((3S,6S,9aS)-3-(3-(3-fluoropyrazin-2-yl)azetidine-1-carbonyl)-5-oxooctahydro-1H-pyrrolo[1,2-a]azepin-6-yl)carbamoyl)benzo[b]thiophen-5-yl)methyl)phosphonic acid], the pIC50 in assay [1] (setting [3]) is 4.52 to 5.52; in assay [2] (setting [4]), 5.00 to 6.00.

Regarding `Cc1ccnnc1C1CN(C(=O)[C@@H]2CC[C@@H]3CCC[C@H](NC(=O)c4cc5cc(C(F)(F)P(=O)(O)O)ccc5s4)C(=O)N32)C1` [Compound 818, (difluoro(2-(((3S,6S,9aS)-3-(3-(4-methylpyridazin-3-yl)azetidine-1-carbonyl)-5-oxooctahydro-1H-pyrrolo[1,2-a]azepin-6-yl)carbamoyl)benzo [b]thiophen-5-yl)methyl) phosphonic acid], the figures for the pIC50 in assay [1] (setting [3]) and in assay [2] (setting [4]) were 4.52 to 5.52 and 6.00 to 7.00, respectively.

As for `O=C(N[C@H]1CC[C@H]2CC[C@@H](C(=O)N3CC(n4ccnc4)C3)N2C1=O)c1cc2cc(C(F)(F)P(=O)(O)O)ccc2s1` [Compound 732, ((2-(((3S,6S,8aS)-3-(3-(1H-imidazol-1-yl)azetidine-1-carbonyl)-5-oxooctahydro-indolizin-6-yl)carbamoyl)benzo [b]thiophen-5-yl)difluoromethyl) phosphonic acid], the figures for the pIC50 in assay [1] (setting [3]) and in assay [2] (setting [4]) were 4.52 to 5.52 and 5.00 to 6.00, respectively.

`O=C(N[C@H]1CCCC[C@H]2CC[C@@H](C(=O)N3CCC(c4ncncc4F)CC3)N2C1=O)c1cc2cc(C(F)P(=O)(O)O)ccc2s1` (stereo partly drawn) [Compound 588, (fluoro(2-(((3S,6S,10aS)-3-(4-(5-fluoropyrimidin-4-yl)piperidine-1-carbonyl)-5-oxodecahydropyrrolo[1,2-a]azocin-6-yl)carbamoyl)benzo[b]thiophen-5-yl)methyl)phosphonic acid]: the pIC50 in assay [1] (setting [3]) was 4.52 to 5.52; in assay [2] (setting [4]) it was 5.00 to 6.00.

With `N#C[C@@H]1[C@@H](c2ccccc2)CN(C(=O)[C@@H]2CC[C@@H]3C[C@@H](N4CCC4)CC[C@H](NC(=O)c4cc5cc([C@H](F)P(=O)(O)O)ccc5s4)C(=O)N32)C12CC2` (single isomer, unassigned) [Compound 934], the pIC50 in assay [1] (setting [3]) was not below 6.52; in assay [2] (setting [4]), 5.00 to 6.00.

On to `C[C@]1(NC(=O)c2cc3cc(C(F)(F)P(=O)(O)O)ccc3s2)CCCC[C@H]2CC[C@@H](C(=O)N3CC(C(=O)N4CCOCC4)C3)N2C1=O` [Compound 40, (difluoro(2-(((3S,6S,10aS)-6-methyl-3-(3-(morpholine-4-carbonyl)azetidine-1-carbonyl)-5-oxodecahydropyrrolo [1,2-a]azocin-6-yl)carbamoyl)benzo[b]thiophen-5-yl)methyl) phosphonic acid], for which the pIC50 in assay [1] (setting [5]) was 4.52 to 5.52; in assay [2] (setting [6]), 6.00 to 7.00.

As to `Cn1cccc(C2CN(C(=O)[C@@H]3CC[C@@H]4CCC[C@H](NC(=O)c5cc6cc(C(F)P(=O)(O)O)ccc6s5)C(=O)N43)C2)c1=O` (stereo partly drawn) [Compound 628, (fluoro(2-(((3S,6S,9aS)-3-(3-(1-methyl-2-oxo-1,2-dihydropyridin-3-yl)azetidine-1-carbonyl)-5-oxooctahydro-1H-pyrrolo[1,2-a]azepin-6-yl)carbamoyl)benzo [b]thiophen-5-yl)methyl) phosphonic acid], the negative logarithm of the IC50 (pIC50) was 4.52 to 5.52 in assay [1] (setting [3]) and more than 7.00 in assay [2] (setting [4]).

On to `Cc1cc(N(C)C)ncc1C1CN(C(=O)[C@@H]2CC[C@@H]3CCC[C@H](NC(=O)c4cc5cc(CP(=O)(O)O)ccc5s4)C(=O)N32)C1` [Compound 507, ((2-(((3S,6S,9aS)-3-(3-(6-(dimethylamino)-4-methylpyridin-3-yl)azetidine-1-carbonyl)-5-oxooctahydro-1H-pyrrolo[1,2-a]azepin-6-yl)carbamoyl)benzo[b]thiophen-5-yl)methyl)phosphonic acid], for which the pIC50 is 4.52 to 5.52 in assay [1] (setting [3]) and 5.00 to 6.00 in assay [2] (setting [4]).

For the compound `CC(NC(=O)[C@@H]1CC[C@@H]2CCCC[C@H](NC(=O)c3cc4cc(C(F)(F)P(=O)(O)O)ccc4s3)C(=O)N21)c1n[nH]c2ncccc12` (stereo partly drawn) [Compound 1107, ((2-(((3S,6S,10aS)-3-((1-(1H-pyrazolo[3,4-b]pyridin-3-yl)ethyl)carbamoyl)-5-oxodecahydropyrrolo[1,2-a]azocin-6-yl)carbamoyl)benzo[b]thiophen-5-yl)difluoromethyl)phosphonic acid], the figures for the pIC50 in assay [1] (setting [3]) and in assay [2] (setting [4]) were 5.52 to 6.52 and 6.00 to 7.00, respectively.
